In patent US20130273207A1, “Calcium Fortifying Composition for Strength, a Hydration Supplement, and Process for Preparing the Same” (priority 2010, published 2013):
Read-outs that look alike come from different tables or passages of the source.

Key:
[1] = Calcium available to human body (bioavailability) from Ca products; conditions: consumption 1000 mg of product
Description: Bioavailability of Calcium Lactate Gluconate: the effectiveness of the nutrient depends on its bioavailability, which means how well the human body absorbs and utilizes it for various functions occurring in the body. On an average, about 10 to 30% of the total calcium is only get absorbed from a mixed diet by healthy adults. Many different factors influence this level of availability, one being the type of salt providing calcium. […] Calcium Lactate Gluconate is primarily used in applications where solubility and clarity are important.

[2] = cited from earlier work
[3] = cited from earlier work; for % bioavailability of Ca out of inorganic Ca: consumption 1000 mg of product; for Bioavailability (in words): human and animal studies
[4] = Solubility in water; conditions: RDA of calcium equals 800 mg per day in the EU
[5] = tested on: women; conditions: over 4,000 women, calcium in drinking water; cited from earlier work
[6] = cited from earlier work; remark: listed apart in the source

## CC(O)C(=O)[O-].O=C([O-])[C@H](O)[C@@H](O)[C@H](O)[C@H](O)CO.[Ca+2] [CLG, Calcium Lactate Gluconate]
[1]
  Total Ca absorbed by the body (mg): Max.
[2]
  Solubility (in words): High solubility (the most soluble forms of organic Ca)
[2]; water
  Solubility [g Ca/L water]: 52 g Ca/L water
  Solubility [g/L water]: 400 g/L water
[2]; water, listed as Calcium Lactate Gluconate
  Solubility [g/L water]: approx. 400 g/L water
[3]
  % bioavailability of Ca out of inorganic Ca: High*
  Bioavailability (in words): highly bioavailable
[3]; listed as Ca lactate gluconate
  Bioavailability (in words): Excellent bioavailability. (maintains that solubility during transit through the small intestine, during which time it is exposed to passive diffusion sites, therefore maximizing Ca absorption).
[4]
  % of RDA in 100 ml: 650%

## O=C([O-])[O-].[Ca+2] [Ca Carbonate, calcium carbonate]
[1]
  Total Ca absorbed by the body: 40 mg
[3]
  % bioavailability of Ca out of inorganic Ca: 10%

## O=C([O-])CC(O)(CC(=O)[O-])C(=O)[O-].O=C([O-])CC(O)(CC(=O)[O-])C(=O)[O-].[Ca+2].[Ca+2].[Ca+2] [Ca Citrate]
[3]
  % bioavailability of Ca out of inorganic Ca: 50%

## [Ca+2] [Calcium]
[3]; healthy adults, on an average
  total calcium absorbed from a mixed diet: 10 to 30%
[5]
  bone density: associated with an increase in their bone density
[6]; 60 mg per liter
  Validation: risk of toxicity (in words): No risk of toxicity
[6]; Source: Expert group of vitamins & Minerals, UK - 2003
  Safe Intake level: 1500 mg
[6]; human trials
  doses that might induce some gastrointestinal side effects in some individuals: indicate that higher doses (of 2500 mg
[6]; in vivo
  supplemental Ca with no adverse effect: 1500 mg per day

## [Cu] [Copper]
[6]; in vivo
  Safe Intake level: 10 mg
  safe upper limit: limit of 10 mg/day in a 60 kg adult

## [Ca+2] [Ionic Ca (Ca^++), Ionic Ca]
[3]
  % bioavailability of Ca out of inorganic Ca: 100%

## CC(O)C(=O)[O-].CC(O)C(=O)[O-].[Ca+2] (stereo not shown) [calcium lactate]
[1]
  Total Ca absorbed by the body: 122 mg
[3]
  % bioavailability of Ca out of inorganic Ca: 33%

## calcium phosphate [Ca Phosphate]
[1]
  Total Ca absorbed by the body: 39 mg
[3]
  % bioavailability of Ca out of inorganic Ca: 10%
